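Cells were grown in 96-well plates and exposed to each compound for 48 hours at five concentrations; endpoints were interpolated linearly between bracketing concentrations, or set to the highest concentration if not reached. Abbreviation: GI50, concentration required for 50% inhibition of growth.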 Active and inactive are the calls of the source. No stated cut-off is given here; in the data, active = GI50 up to about 1.1 µM and inactive = higher.
Tests used:
Test in all cases: DTP human tumour cell line panel, 48 h
[1] = system: 786-0
[2] = system: A498
[3] = system: A549
[4] = system: ACHN
[5] = system: CAKI-1
[6] = system: CCRF-CEM
[7] = system: COLO 205
[8] = system: DLD-1
[9] = system: DMS-114
[10] = system: DMS-273
[11] = system: EKVX
[12] = system: HCC 2998
[13] = system: HCT-116
[14] = system: HCT-15
[15] = system: HL-60
[16] = system: HOP-18
[17] = system: HOP-62
[18] = system: HOP-92
[19] = system: HT-29
[20] = system: IGROV-1
[21] = system: K562
[22] = system: KM-20L2
[23] = system: KM12
[24] = system: LOX IMVI
[25] = system: LXFL 529
[26] = system: M14
[27] = system: M19-MEL
[28] = system: MOLT-4
[29] = system: Malme-3M
[30] = system: NCI-H226
[31] = system: NCI-H23
[32] = system: NCI-H460
[33] = system: NCI-H522
[34] = system: OVCAR-3
[35] = system: OVCAR-4
[36] = system: OVCAR-5
[37] = system: OVCAR-8
[38] = system: RPMI-8226
[39] = system: RXF 393
[40] = system: SF-268
[41] = system: SF-295
[42] = system: SF-539
[43] = system: SK-MEL-28
[44] = system: SK-MEL-2
[45] = system: SK-MEL-5
[46] = system: SK-OV-3
[47] = system: SN12C
[48] = system: SNB-19
[49] = system: SNB-75
[50] = system: SNB-78
[51] = system: SR
[52] = system: SW-620
[53] = system: TK-10
[54] = system: U-251
[55] = system: UACC-257
[56] = system: UACC-62
[57] = system: UO-31
[58] = system: XF498

## Cc1nnc(N/N=C(/C(=O)C(C#N)c2ccccc2)C(C#N)c2ccccc2)n1N (stereo not given)
[1]
  GI50: 11.8 µM (inactive)
[2]
  GI50: 7.98 µM (inactive)
[3]
  GI50: 20.2 µM (inactive)
[4]
  GI50: 22.3 µM (inactive)
[5]
  GI50: 32.1 µM (inactive)
[6]
  GI50: 2.12 µM (inactive)
[7]
  GI50: 4.76 µM (inactive)
[8]
  GI50: 22.6 µM (inactive)
[9]
  GI50: 3.01 µM (inactive)
[10]
  GI50: 17.7 µM (inactive)
[11]
  GI50: 51.9 µM (inactive)
[12]
  GI50: 4.85 µM (inactive)
[13]
  GI50: 2.46 µM (inactive)
[14]
  GI50: 16.1 µM
[15]
  GI50: 17.9 µM (inactive)
[16]
  GI50: 15.2 µM (inactive)
[17]
  GI50: 50.7 µM (inactive)
[18]
  GI50: > 100 µM (inactive)
[19]
  GI50: 6.4 µM (inactive)
[20]
  GI50: > 58.9 µM (inactive)
[21]
  GI50: 3.73 µM (inactive)
[22]
  GI50: 49.3 µM (inactive)
[23]
  GI50: 28.4 µM (inactive)
[24]
  GI50: 1.54 µM (inactive)
[25]
  GI50: 3.71 µM (inactive)
[26]
  GI50: 16.8 µM (inactive)
[27]
  GI50: 2.74 µM (inactive)
[28]
  GI50: 0.845 µM (active)
[29]
  GI50: 4.18 µM (inactive)
[30]
  GI50: 28.8 µM (inactive)
[31]
  GI50: 12.9 µM (inactive)
[32]
  GI50: 1.01 µM (active)
[33]
  GI50: 17.9 µM (inactive)
[34]
  GI50: 20 µM (inactive)
[35]
  GI50: 24.4 µM (inactive)
[36]
  GI50: > 42.9 µM (inactive)
[37]
  GI50: 3.62 µM (inactive)
[38]
  GI50: 19.6 µM (inactive)
[39]
  GI50: 17 µM (inactive)
[40]
  GI50: 31 µM (inactive)
[41]
  GI50: 3.75 µM (inactive)
[42]
  GI50: > 48.6 µM (inactive)
[43]
  GI50: 20 µM (inactive)
[44]
  GI50: 5.25 µM (inactive)
[45]
  GI50: 18.3 µM (inactive)
[46]
  GI50: > 61.4 µM (inactive)
[47]
  GI50: 3.13 µM (inactive)
[48]
  GI50: 56 µM (inactive)
[49]
  GI50: 16.4 µM (inactive)
[50]
  GI50: > 51.1 µM (inactive)
[51]
  GI50: 32.3 µM (inactive)
[52]
  GI50: 1.56 µM (inactive)
[53]
  GI50: > 60.3 µM (inactive)
[54]
  GI50: 32.6 µM (inactive)
[55]
  GI50: 5.26 µM (inactive)
[56]
  GI50: 29.8 µM (inactive)
[57]
  GI50: 26.4 µM (inactive)

## C=CC1(CC)/C(=N\O)C(CC)(CC)C(=O)N1O (stereo not given)
[1]
  GI50: > 100 µM (inactive)
[2]
  GI50: > 100 µM (inactive)
[3]
  GI50: > 100 µM (inactive)
[4]
  GI50: > 100 µM (inactive)
[5]
  GI50: > 100 µM (inactive)
[6]
  GI50: > 100 µM (inactive)
[7]
  GI50: > 100 µM (inactive)
[8]
  GI50: > 100 µM (inactive)
[9]
  GI50: > 100 µM (inactive)
[10]
  GI50: > 100 µM (inactive)
[11]
  GI50: > 100 µM (inactive)
[12]
  GI50: > 100 µM (inactive)
[13]
  GI50: > 100 µM (inactive)
[14]
  GI50: > 100 µM
[15]
  GI50: > 100 µM (inactive)
[17]
  GI50: > 100 µM (inactive)
[18]
  GI50: 93.8 µM (inactive)
[19]
  GI50: > 100 µM (inactive)
[20]
  GI50: > 100 µM (inactive)
[21]
  GI50: > 100 µM (inactive)
[22]
  GI50: > 100 µM (inactive)
[23]
  GI50: > 100 µM (inactive)
[24]
  GI50: > 100 µM (inactive)
[25]
  GI50: > 100 µM (inactive)
[26]
  GI50: > 100 µM (inactive)
[27]
  GI50: > 100 µM (inactive)
[28]
  GI50: > 100 µM (inactive)
[29]
  GI50: > 100 µM (inactive)
[30]
  GI50: > 100 µM (inactive)
[31]
  GI50: > 100 µM (inactive)
[32]
  GI50: > 100 µM (inactive)
[33]
  GI50: > 100 µM (inactive)
[34]
  GI50: > 100 µM (inactive)
[35]
  GI50: > 100 µM (inactive)
[36]
  GI50: > 100 µM (inactive)
[37]
  GI50: > 100 µM (inactive)
[38]
  GI50: > 100 µM (inactive)
[39]
  GI50: > 100 µM (inactive)
[41]
  GI50: > 100 µM (inactive)
[42]
  GI50: > 100 µM (inactive)
[43]
  GI50: > 100 µM (inactive)
[44]
  GI50: > 100 µM (inactive)
[45]
  GI50: > 100 µM (inactive)
[46]
  GI50: > 100 µM (inactive)
[47]
  GI50: > 100 µM (inactive)
[48]
  GI50: > 100 µM (inactive)
[49]
  GI50: > 100 µM (inactive)
[50]
  GI50: > 100 µM (inactive)
[51]
  GI50: > 100 µM (inactive)
[52]
  GI50: > 100 µM (inactive)
[53]
  GI50: > 100 µM (inactive)
[54]
  GI50: > 100 µM (inactive)
[55]
  GI50: > 100 µM (inactive)
[56]
  GI50: > 100 µM (inactive)
[57]
  GI50: > 100 µM (inactive)
[58]
  GI50: 48.9 µM (inactive)

## COc1ccc(C2=NN(c3nsc4ccccc34)C(=O)CC2)cc1
[3]
  GI50: > 100 µM (inactive)
[4]
  GI50: > 100 µM (inactive)
[6]
  GI50: 82.6 µM (inactive)
[7]
  GI50: > 100 µM (inactive)
[9]
  GI50: 58.5 µM (inactive)
[10]
  GI50: > 100 µM (inactive)
[11]
  GI50: 55.2 µM (inactive)
[12]
  GI50: > 100 µM (inactive)
[13]
  GI50: 54.2 µM (inactive)
[14]
  GI50: 57.9 µM
[15]
  GI50: 39.4 µM (inactive)
[16]
  GI50: 12.6 µM (inactive)
[17]
  GI50: > 100 µM (inactive)
[18]
  GI50: 92 µM (inactive)
[19]
  GI50: > 100 µM (inactive)
[20]
  GI50: 70.1 µM (inactive)
[21]
  GI50: 36 µM (inactive)
[22]
  GI50: > 100 µM (inactive)
[23]
  GI50: > 100 µM (inactive)
[24]
  GI50: 89.1 µM (inactive)
[25]
  GI50: 75 µM (inactive)
[26]
  GI50: > 100 µM (inactive)
[27]
  GI50: > 100 µM (inactive)
[28]
  GI50: 44 µM (inactive)
[31]
  GI50: > 100 µM (inactive)
[32]
  GI50: 62.7 µM (inactive)
[34]
  GI50: 32.3 µM (inactive)
[35]
  GI50: > 100 µM (inactive)
[36]
  GI50: > 100 µM (inactive)
[37]
  GI50: > 100 µM (inactive)
[38]
  GI50: 30.5 µM (inactive)
[39]
  GI50: > 100 µM (inactive)
[40]
  GI50: > 100 µM (inactive)
[42]
  GI50: > 100 µM (inactive)
[43]
  GI50: > 100 µM (inactive)
[44]
  GI50: > 100 µM (inactive)
[45]
  GI50: 61.4 µM (inactive)
[47]
  GI50: > 100 µM (inactive)
[48]
  GI50: 76 µM (inactive)
[49]
  GI50: 84.3 µM (inactive)
[50]
  GI50: > 100 µM (inactive)
[51]
  GI50: 49 µM (inactive)
[52]
  GI50: > 100 µM (inactive)
[53]
  GI50: > 100 µM (inactive)
[54]
  GI50: 91.4 µM (inactive)
[55]
  GI50: > 100 µM (inactive)
[56]
  GI50: > 100 µM (inactive)
[57]
  GI50: 59.2 µM (inactive)

## CCOc1ccc2[nH]c3c(C)c4cc[n+](C)cc4c(C)c3c2c1
[1]
  GI50: 0.149 µM (active)
[3]
  GI50: 1.18 µM (inactive)
[6]
  GI50: 1.98 µM (inactive)
[8]
  GI50: 0.9 µM (active)
[11]
  GI50: 2.57 µM (inactive)
[12]
  GI50: 3 µM (inactive)
[13]
  GI50: 1.82 µM (inactive)
[15]
  GI50: 4.67 µM (inactive)
[16]
  GI50: 2.62 µM (inactive)
[18]
  GI50: 1.98 µM (inactive)
[19]
  GI50: 3.25 µM (inactive)
[20]
  GI50: 2.18 µM (inactive)
[21]
  GI50: 1.58 µM (inactive)
[22]
  GI50: 3.35 µM (inactive)
[23]
  GI50: 1.57 µM (inactive)
[25]
  GI50: 0.22 µM (active)
[26]
  GI50: 5.81 µM (inactive)
[30]
  GI50: 0.264 µM (active)
[31]
  GI50: 0.929 µM (active)
[32]
  GI50: 1.94 µM (inactive)
[33]
  GI50: 0.838 µM (active)
[34]
  GI50: 2.52 µM (inactive)
[35]
  GI50: 2.54 µM (inactive)
[38]
  GI50: 11.3 µM (inactive)
[39]
  GI50: 6.41 µM (inactive)
[40]
  GI50: 0.184 µM (active)
[41]
  GI50: 0.125 µM (active)
[42]
  GI50: 0.363 µM (active)
[43]
  GI50: 2.24 µM (inactive)
[44]
  GI50: 1.51 µM (inactive)
[45]
  GI50: 1.36 µM (inactive)
[46]
  GI50: 2.88 µM (inactive)
[47]
  GI50: 0.14 µM (active)
[50]
  GI50: 1.09 µM (active)
[52]
  GI50: 1.28 µM (inactive)
[54]
  GI50: 0.115 µM (active)
[55]
  GI50: 2.97 µM (inactive)
[56]
  GI50: 1.84 µM (inactive)
[57]
  GI50: 16.6 µM (inactive)
